{"source": "patent US20260070899A1", "about": "“N-(2-(4-CYANOTHIAZOLIDIN-3-YL)-2-OXOETHYL)-QUINOLINE-4-CARBOXAMIDES” (AstraZeneca AB, priority 2022, published 2026)", "key": {"Rat Hepatocytes (rHep)": {"test_system": "Rat Hepatocytes (rHep)", "experiment": "Metabolic stability in rat hepatocytes (rHep)", "assay_type": "in vitro ADME", "conditions": "n = 1 or geometric mean (n = 2-3)", "method": "Metabolic stability in rat hepatocytes was measured as described in J Comput Aided Mol Des 2015, 29, 795."}, "[1]": {"experiment": "Metabolic stability in human liver microsomes (HLM)", "assay_type": "in vitro ADME", "conditions": "n = 1 or average (n = 2-3)", "method": "Metabolic stability in HLM was measured as described in J Comput Aided Mol Des 2015, 29, 795."}, "Kinetic solubility": {"experiment": "Kinetic solubility", "assay_type": "physicochemical", "conditions": "kinetic from dmso stock, n = 1 or average (n = 2-4)", "method": "Kinetic solubility was measured as described in Comput Aided Mol Des 2015, 29, 795."}, "hFAP (M39-A757)": {"target": "T1, hFAP (M39-A757) (Homo sapiens, UniProt Q12884)", "T1 sequence (Q12884 39-757)": "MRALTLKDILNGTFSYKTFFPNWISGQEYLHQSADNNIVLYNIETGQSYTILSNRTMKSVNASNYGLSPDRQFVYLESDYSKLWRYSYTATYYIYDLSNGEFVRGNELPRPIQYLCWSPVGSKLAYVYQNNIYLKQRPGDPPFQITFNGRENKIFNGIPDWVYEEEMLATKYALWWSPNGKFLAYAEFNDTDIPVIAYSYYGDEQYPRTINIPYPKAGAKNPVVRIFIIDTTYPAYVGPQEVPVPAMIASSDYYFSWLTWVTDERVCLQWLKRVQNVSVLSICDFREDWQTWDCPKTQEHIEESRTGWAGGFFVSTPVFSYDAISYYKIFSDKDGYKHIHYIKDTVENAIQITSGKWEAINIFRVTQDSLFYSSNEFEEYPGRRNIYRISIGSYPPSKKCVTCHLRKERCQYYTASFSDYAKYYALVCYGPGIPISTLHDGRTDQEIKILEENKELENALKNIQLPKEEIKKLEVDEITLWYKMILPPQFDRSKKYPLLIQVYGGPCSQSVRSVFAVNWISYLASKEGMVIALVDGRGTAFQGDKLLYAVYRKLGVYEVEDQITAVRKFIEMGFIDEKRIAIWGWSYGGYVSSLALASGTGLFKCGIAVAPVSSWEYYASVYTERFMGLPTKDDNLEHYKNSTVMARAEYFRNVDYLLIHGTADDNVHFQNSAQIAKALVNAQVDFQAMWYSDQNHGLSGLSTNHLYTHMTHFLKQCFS", "experiment": "biochemical", "description": "Compounds were tested in a direct binding assay using 8K surface plasmon resonance biosensor (GE Healthcare) at 20° C. Immobilization of hFAP (M39-A757) on a CMD200M sensor chip (Xantec) was performed using standard amine coupling procedure in immobilization buffer (10 mM HEPES, 150 mM NaCl, 0.05% Tween20, pH 7.4). The surface was washed with 10 mM aq NaOH, 1M NaCl before being activated with EDC/NHS (GE Healthcare), followed by immobilization of hFAP (in 10 mM Acetate pH 5.0). Finally, the surface was deactivated by ethanolamine. Immobilization levels of hFAP were around 4000-6000 RU. The reference spot was treated as described, omitting the injection of hFAP. Compound concentration series were injected over the immobilized protein in increasing concentrations (2-500 nM) using single cycle kinetics in running buffer (20 mM TRIS, 150 mM NaCl, 0.05% Tween20, 1% DMSO, pH 7.4). Interaction models were fitted globally to the experimental traces, enabling determination of kon, koff and Kd."}, "[2]": {"target": "T2, Prolyl endopeptidase, Prolyl Oligopeptidase (hPREP) (Homo sapiens, UniProt P48147)", "T2 sequence (P48147 1-710)": "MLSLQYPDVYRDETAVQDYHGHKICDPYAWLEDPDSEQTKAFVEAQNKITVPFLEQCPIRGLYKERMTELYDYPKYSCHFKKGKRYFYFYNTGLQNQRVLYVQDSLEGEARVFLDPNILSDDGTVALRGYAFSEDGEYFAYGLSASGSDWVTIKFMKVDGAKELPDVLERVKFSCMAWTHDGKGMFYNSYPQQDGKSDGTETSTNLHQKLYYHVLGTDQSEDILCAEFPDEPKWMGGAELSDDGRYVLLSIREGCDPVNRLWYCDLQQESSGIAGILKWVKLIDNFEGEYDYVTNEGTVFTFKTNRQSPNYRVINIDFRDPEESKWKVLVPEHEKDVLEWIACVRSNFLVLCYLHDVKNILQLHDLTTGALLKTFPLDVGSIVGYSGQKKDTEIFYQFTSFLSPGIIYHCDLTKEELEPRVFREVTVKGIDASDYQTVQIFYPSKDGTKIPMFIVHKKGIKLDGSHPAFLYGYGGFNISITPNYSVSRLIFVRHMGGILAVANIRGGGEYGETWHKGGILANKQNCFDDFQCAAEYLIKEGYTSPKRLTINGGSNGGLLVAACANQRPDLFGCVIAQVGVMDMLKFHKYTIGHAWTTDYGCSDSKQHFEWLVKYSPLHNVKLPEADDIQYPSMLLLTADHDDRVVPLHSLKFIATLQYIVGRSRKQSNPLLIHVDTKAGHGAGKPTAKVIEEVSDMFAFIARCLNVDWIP", "experiment": "biochemical"}, "hFAP": {"target": "T3, hFAP (Homo sapiens, UniProt Q12884)", "T3 sequence (Q12884 38-760)": "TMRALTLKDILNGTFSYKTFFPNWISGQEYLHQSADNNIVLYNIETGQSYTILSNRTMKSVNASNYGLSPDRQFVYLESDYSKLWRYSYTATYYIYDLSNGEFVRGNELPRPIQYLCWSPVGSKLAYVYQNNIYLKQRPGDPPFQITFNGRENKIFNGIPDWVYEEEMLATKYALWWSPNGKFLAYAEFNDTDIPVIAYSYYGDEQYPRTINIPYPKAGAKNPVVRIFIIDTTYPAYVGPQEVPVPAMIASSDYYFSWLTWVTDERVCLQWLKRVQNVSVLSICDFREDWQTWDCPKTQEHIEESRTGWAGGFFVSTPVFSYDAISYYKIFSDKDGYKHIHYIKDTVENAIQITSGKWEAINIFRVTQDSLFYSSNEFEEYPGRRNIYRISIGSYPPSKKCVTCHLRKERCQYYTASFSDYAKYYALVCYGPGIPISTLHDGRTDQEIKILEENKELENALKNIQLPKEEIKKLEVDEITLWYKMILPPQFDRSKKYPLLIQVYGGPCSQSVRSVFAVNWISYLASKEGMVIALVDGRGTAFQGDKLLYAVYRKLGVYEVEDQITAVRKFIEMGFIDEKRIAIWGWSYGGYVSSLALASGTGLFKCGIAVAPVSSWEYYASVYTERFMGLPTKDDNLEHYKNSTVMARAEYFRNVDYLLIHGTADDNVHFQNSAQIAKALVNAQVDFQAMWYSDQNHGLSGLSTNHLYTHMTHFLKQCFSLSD", "experiment": "biochemical"}}}
{"compound": "CC(c1ccc2nccc(C(=O)NCC(=O)N3CSC[C@H]3C#N)c2c1)c1ccc(Cl)cn1", "note": "(mixture of isomers) [Example 48, 6-((RS)-1-(5-Chloropyridin-2-yl)ethyl)-N-(2-((R)-4-cyanothiazolidin-3-yl)-2-oxoethyl)quinoline-4-carboxamide];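 as to Kd: surface plasmon resonance direct binding to hFAP amine-coupled on a sensor chip, rising compound concentrations by single cycle kinetics, Kd from global fit of interaction models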", "values": [{"measurement": "rHeps CLint", "setting": "Rat Hepatocytes (rHep)", "value": 27, "unit": "μL/min/1E6"}, {"measurement": "microsomal CLint", "setting": "[1]", "value": "> 300", "unit": "µL/min/mg"}, {"measurement": "solubility", "setting": "Kinetic solubility", "value": 240, "unit": "µM"}, {"measurement": "Kd", "setting": "hFAP (M39-A757)", "value": 0.12, "unit": "nM"}, {"measurement": "IC50", "setting": "[2]", "value": 240, "unit": "nM"}]}
{"compound": "Cc1cc(C(C)c2ccc3nccc(C(=O)NCC(=O)N4CSC[C@H]4C#N)c3c2)on1", "note": "(mixture of isomers) [Example 49, N-(2-((R)-4-Cyanothiazolidin-3-yl)-2-oxoethyl)-6-((RS)-1-(3-methylisoxazol-5-yl)ethyl)quinoline-4-carboxamide]", "values": [{"measurement": "rHeps CLint", "setting": "Rat Hepatocytes (rHep)", "value": 24, "unit": "μL/min/1E6"}, {"measurement": "microsomal CLint", "setting": "[1]", "value": 46, "unit": "µL/min/mg"}, {"measurement": "solubility", "setting": "Kinetic solubility", "value": 220, "unit": "µM"}, {"measurement": "Kd", "setting": "hFAP (M39-A757)", "value": 0.13, "unit": "nM"}, {"measurement": "IC50", "setting": "[2]", "value": 110, "unit": "nM"}]}
{"compound": "CC(c1ccnc(C(F)(F)F)c1)c1ccc2nccc(C(=O)NCC(=O)N3CSC[C@H]3C#N)c2c1", "note": "(mixture of isomers) [Example 52, N-(2-((R)-4-Cyanothiazolidin-3-yl)-2-oxoethyl)-6-((RS)-1-(2-(trifluoromethyl)pyridin-4-yl)ethyl)quinoline-4-carboxamide]", "values": [{"measurement": "rHeps CLint", "setting": "Rat Hepatocytes (rHep)", "value": 49, "unit": "μL/min/1E6"}, {"measurement": "microsomal CLint", "setting": "[1]", "value": 210, "unit": "µL/min/mg"}, {"measurement": "solubility", "setting": "Kinetic solubility", "value": 120, "unit": "µM"}, {"measurement": "Kd", "setting": "hFAP (M39-A757)", "value": 0.2, "unit": "nM"}, {"measurement": "IC50", "setting": "[2]", "value": 320, "unit": "nM"}]}
{"compound": "CC1(C)CC(c2ccc3nccc(C(=O)NCC(=O)N4CSC[C@H]4C#N)c3c2)CO1", "note": "(mixture of isomers) [Example 61, N-(2-((R)-4-Cyanothiazolidin-3-yl)-2-oxoethyl)-6-(5,5-dimethyltetrahydrofuran-3-yl)quinoline-4-carboxamide]", "values": [{"measurement": "rHeps CLint", "setting": "Rat Hepatocytes (rHep)", "value": 23, "unit": "μL/min/1E6"}, {"measurement": "microsomal CLint", "setting": "[1]", "value": 77, "unit": "µL/min/mg"}, {"measurement": "solubility", "setting": "Kinetic solubility", "value": "> 1000", "unit": "µM"}, {"measurement": "IC50", "setting": "[2]", "value": 640, "unit": "nM"}]}
{"compound": "N#C[C@@H]1CSCN1C(=O)CNC(=O)c1ccnc2ccc(C3CCOC3)cc12", "note": "(mixture of isomers) [Example 67, N-(2-((R)-4-Cyanothiazolidin-3-yl)-2-oxoethyl)-6-((RS)-tetrahydrofuran-3-yl)quinoline-4-carboxamide]", "values": [{"measurement": "IC50", "setting": "hFAP", "value": 0.3, "unit": "nM"}, {"measurement": "rHeps CLint", "setting": "Rat Hepatocytes (rHep)", "value": 11, "unit": "μL/min/1E6"}, {"measurement": "microsomal CLint", "setting": "[1]", "value": 16, "unit": "µL/min/mg"}, {"measurement": "solubility", "setting": "Kinetic solubility", "value": 880, "unit": "µM"}, {"measurement": "Kd", "setting": "hFAP (M39-A757)", "value": 0.11, "unit": "nM"}, {"measurement": "IC50", "setting": "[2]", "value": 87, "unit": "nM"}]}
{"compound": "N#C[C@@H]1CSCN1C(=O)CNC(=O)c1ccnc2ccc(OCC(F)F)cc12", "note": "[Example 2, (R)—N-(2-(4-Cyanothiazolidin-3-yl)-2-oxoethyl)-6-(2,2-difluoroethoxy)quinoline-4-carboxamide]", "values": [{"measurement": "rHeps CLint", "setting": "Rat Hepatocytes (rHep)", "value": 5.9, "unit": "μL/min/1E6"}, {"measurement": "microsomal CLint", "setting": "[1]", "value": 36, "unit": "µL/min/mg"}, {"measurement": "solubility", "setting": "Kinetic solubility", "value": 490, "unit": "µM"}, {"measurement": "Kd", "setting": "hFAP (M39-A757)", "value": 0.052, "unit": "nM"}, {"measurement": "IC50", "setting": "[2]", "value": 190, "unit": "nM"}]}
{"compound": "N#C[C@@H]1CSCN1C(=O)CNC(=O)c1ccnc2ccc(OC(CF)CF)cc12", "note": "[Example 7, (R)—N-(2-(4-Cyanothiazolidin-3-yl)-2-oxoethyl)-6-((1,3-difluoropropan-2-yl)oxy)quinoline-4-carboxamide]", "values": [{"measurement": "rHeps CLint", "setting": "Rat Hepatocytes (rHep)", "value": 9.1, "unit": "μL/min/1E6"}, {"measurement": "microsomal CLint", "setting": "[1]", "value": 40, "unit": "µL/min/mg"}, {"measurement": "solubility", "setting": "Kinetic solubility", "value": 550, "unit": "µM"}, {"measurement": "IC50", "setting": "[2]", "value": 150, "unit": "nM"}]}
